# Values joined by “and” are separate entries in the source; they are usually repeats but may differ in a detail not shown here. Identical values can stand only once.
# Experiments:
# [1] = system: nonreplicating wild-type M. tuberculosis; type: cell-based, Mycobacterium tuberculosis H37Rv; details: for bactericidal activity against nonreplicating wild-type M. tuberculosis (Figure S2): in words
# [2] = Stability in cell-free PBS and nonreplicating medium; type: physicochemical; details: day 6; for d6: % remaining NR medium + 0.5 mM NaNO2: cell-free nonreplicating medium pH 5.0 with 0.5 mM NaNO2, 37 °C; for d6: % remaining in PBS: cell-free PBS pH 7.4, 37 °C; for d6: % remaining NR medium: cell-free nonreplicating medium pH 5.0 without NaNO2, 37 °C
# [3] = system: replicating M. tuberculosis; test: MIC90 against replicating M. tuberculosis; type: cell-based, Mycobacterium tuberculosis mc^26220 (ΔpanCDΔlysA); details: for activity against replicating M. tuberculosis on addition of clavulanate: data not shown; for R-MIC90 3 days OD580 = 0.01: replicating
# [4] = system: nonreplicating M. tuberculosis; test: microbe, parasite or virus in culture; type: cell-based, Mycobacterium tuberculosis mc^26220 (ΔpanCDΔlysA); details: for activity against nonreplicating M. tuberculosis, in words: multistress nonreplicating model; for NR-MIC90 3 days OD580 = 0.01 / NR-MIC90 3 days OD580 = 0.1: 3 days exposure
# M. tuberculosis = details: cited from earlier work
# [5] = Mouse liver microsomal stability; type: in vitro ADME; details: assayed at 0-60 min
# [6] = Parallel artificial membrane permeability assay; type: in vitro ADME
# [7] = system: intracellular M. tuberculosis; details: for CFU reduction of intracellular M. tuberculosis: IFNγ-activated macrophages, 100 μg/mL, 4 days (1) or 3 days (5)
# Solubility at pH 7.4 = type: physicochemical; details: after shaking at room temperature for 4 h
# [8] = Hydrolytic stability at pH 2, 7 and 12; type: physicochemical; details: percent remaining after a 4 h incubation at 37 °C
# [9] = Human liver microsomal stability; type: in vitro ADME; details: liver microsomes, human liver microsomes t1/2, assayed at 0-60 min
# Plasma stability, mouse = details: 1 μg/mL, 37 °C, parent ion monitored
# [10] = system: nonreplicating M. tuberculosis; test: Charcoal agar resazurin assay; type: cell-based; details: for dose-dependent decrease of CARA fluorescence, effect of NaNO2: with or without 0.5 mM NaNO2, 7 days, OD580 0.1 or 0.01
# [11] = nonreplicating, 6 days exposure
structure (smiles),measurement,setting,value
CCCc1noc(C2=C(C)CS[C@@H]3[C@H](NC(=O)c4ccc(Cl)cc4)C(=O)N23)n1 [compound 23],bactericidal activity against nonreplicating wild-type M. tuberculosis (Figure S2),[1],bactericidal
CCCN[C@@H]1C(=O)N2C(C(=O)OCCC)=C(C)CS[C@H]12 [compound 3],d6: % remaining NR medium + 0.5 mM NaNO2,[2],unstable
same,activity against replicating M. tuberculosis on addition of clavulanate,[3]; addition of clavulanate,did not lead to activity
same,R-MIC90 3 days OD580 = 0.01,[3],>100 µg/mL
same,"activity against nonreplicating M. tuberculosis, in words",[4],significant activity
same,NR-MIC90 3 days OD580 = 0.01,"[4]; nonreplicating, OD580 = 0.01",0.7 µg/mL
same,NR-MIC90 3 days OD580 = 0.1,[4]; nonreplicating,2.69 µg/mL
same,NR-MIC90 6 days OD580 = 0.1,[4]; [11],0.45 µg/mL
CCCc1noc(C2=C(C)CS[C@@H]3[C@H](NC(=O)COc4ccc(Cl)cc4)C(=O)N23)n1 [22c],bactericidal activity against nonreplicating wild-type M. tuberculosis (Figure S2),[1],bactericidal
"C[C@@H](O)[C@H]1C(=O)N2C(C(=O)O)=C(S[C@@H]3CN[C@H](C(=O)N(C)C)C3)[C@H](C)[C@H]12 [Meropenem, reference compound]",enhancement of replicating MIC90 by clavulanate,[3]; addition of clavulanate,4 fold
CCCOC(=O)C1=C(C)CS[C@@H]2[C@H](NC(=O)[C@H](N)c3ccccc3)C(=O)N12 [4b],MIC90,"[4]; Mycobacterium tuberculosis, read-out: NR d7 OD=0.1 MIC90",15.5 µg/mL
CCCCOC(=O)C1=C(C)CS[C@@H]2[C@H](NC(=O)CCc3ccccc3)C(=O)N12 [12e],bactericidal activity against nonreplicating wild-type M. tuberculosis (Figure S2),[1],bactericidal
"CC1=C(C(=O)O)N2C(=O)[C@@H](NC(=O)[C@H](N)c3ccccc3)[C@H]2SC1 [cephalexin 4, cephalexin, reference compound]",R-MIC90 3 days OD580 = 0.01,[3],33.99 µg/mL
same,"activity against nonreplicating M. tuberculosis, in words",[4],inactive
same,NR-MIC90 3 days OD580 = 0.01,"[4]; nonreplicating, OD580 = 0.01",97.93 µg/mL
same,NR-MIC90 3 days OD580 = 0.1,[4]; nonreplicating,61.35 µg/mL
same,NR-MIC90 6 days OD580 = 0.1,[4]; [11],70.42 µg/mL
"C[C@@H](O)[C@H]1C(=O)N2C(C(=O)O)=C([C@H]3CCCO3)S[C@H]12 [faropenem, reference compound]",killing of replicating and nongrowing M. tuberculosis,M. tuberculosis,kill both replicating and nongrowing M. tuberculosis
same,"activity against nonreplicating M. tuberculosis, in words",[4],inactive
CC1=C(c2nc(C)no2)N2C(=O)[C@@H](NC(=O)COc3ccc(Cl)cc3)[C@H]2SC1 [18d],bactericidal activity against nonreplicating wild-type M. tuberculosis (Figure S2),[1],bactericidal
CCCc1noc(C2=C(C)CS[C@@H]3[C@H](NC(=O)CCc4ccc(OC)cc4)C(=O)N23)n1 [21b],bactericidal activity against nonreplicating wild-type M. tuberculosis (Figure S2),[1],bactericidal
"CC1=C(c2nc(C)no2)N2C(=O)[C@@H](NC(=O)COc3ccccc3)[C@H]2SC1 [compound 5, N-((6R,7R)-3-Methyl-2-(3-methyl-1,2,4-oxadiazol-5-yl)-8-oxo-5-thia-1-azabicyclo[4.2.0]oct-2-en-7-yl)-2-phenoxyacetamide]",mouse liver microsomes t1/2,[5],rapidly metabolized
same,PAMPA log Pe,[6],–4.87
same,CFU reduction of intracellular M. tuberculosis,[7],1–2 log10
same,IFNγ dependence of bactericidal activity against intracellular M. tuberculosis,[7]; macrophages activated or not with 50 ng/mL IFNγ,strictly IFNγ dependent
same,solubility,Solubility at pH 7.4,83.7 µM
same,pH 2 stability,[8],100%
same,pH 12 stability,[8],0.000%
same,d6: % remaining NR medium + 0.5 mM NaNO2,[2],stable
same,concentration that reduced colony-forming units by 2 log10,[1],0.7–0.8 μg/mL
same,bactericidal activity against nonreplicating wild-type M. tuberculosis (Figure S2),[1],bactericidal
same,half-life,[9],~1.33 h
same,stability in mouse plasma (time to complete transformation),"Plasma stability, mouse",< 5 min
same,"dose-dependent decrease of CARA fluorescence, effect of NaNO2",[10],strongly enhanced by the addition of NaNO2
CC1=C(c2nc(C)no2)N2C(=O)[C@@H](NC(=O)[C@H](N)c3ccccc3)[C@H]2SC1 [4c],"activity against replicating M. tuberculosis, in words",[3],completely inactive
same,"activity against nonreplicating M. tuberculosis, in words",[4],poorly active
COC(=O)C1=C(C)CS[C@@H]2[C@H](NC(=O)[C@H](N)c3ccccc3)C(=O)N12 [4a],"activity against replicating M. tuberculosis, in words",[3],completely inactive
same,"activity against nonreplicating M. tuberculosis, in words",[4],poorly active
"CCCOC(=O)C1=C(C)CS[C@@H]2[C@H](NC(=O)COc3ccccc3)C(=O)N12 [compound 1, Propyl (6R,7R)-3-Methyl-8-oxo-7-(2-phenoxyacetamido)-5-thia-1-azabicyclo[4.2.0]oct-2-ene-2-carboxylate]",mouse liver microsomes t1/2,[5],rapidly metabolized
same,PAMPA log Pe,[6],–5.15
same,CFU reduction of intracellular M. tuberculosis,[7],1–2 log10
same,solubility,Solubility at pH 7.4,22.7 µM
same,solubility at 4 h,"Solubility at pH 7.4; pH 7.4, solubility",23 µM
same,pH 2 stability,[8],100% and 110%
same,pH 12 stability,[8],0.000%
same,d6: % remaining in PBS,[2],stable
same,d6: % remaining NR medium + 0.5 mM NaNO2,[2],stable
same,d6: % remaining NR medium,[2],stable
same,activity against replicating M. tuberculosis on addition of clavulanate,[3]; addition of clavulanate,did not lead to activity
same,R-MIC90 3 days OD580 = 0.01,[3],>100 µg/mL
same,concentration that reduced colony-forming units by 2 log10,[1],0.7–0.8 μg/mL
same,NR-MIC90 3 days OD580 = 0.01,"[4]; nonreplicating, OD580 = 0.01",0.90 µg/mL
same,NR-MIC90 3 days OD580 = 0.1,[4]; nonreplicating,1.76 µg/mL
same,NR-MIC90 6 days OD580 = 0.01,"[4]; nonreplicating, 6 days exposure, OD580 = 0.01",0.64 µg/mL
same,NR-MIC90 6 days OD580 = 0.1,[4]; [11],1.05 µg/mL
same,stability in mouse plasma (time to complete transformation),"Plasma stability, mouse",< 5 min
same,enhancement of activity by nitrite,"[10]; CARA, OD580 0.01, 0.5 mM NaNO2",32- to 64 fold
same,"dose-dependent decrease of CARA fluorescence, effect of NaNO2",[10],strongly enhanced by the addition of NaNO2
COCC1=C(C)CS[C@@H]2[C@H](NC(=O)COc3ccccc3)C(=O)N12 [compound 10],"activity against nonreplicating M. tuberculosis, in words",[4],inactive
CC1=C(c2nc(C)no2)N2C(=O)[C@@H](NC(=O)OCC(Cl)(Cl)Cl)[C@H]2SC1 [19d],bactericidal activity against nonreplicating wild-type M. tuberculosis (Figure S2),[1],bactericidal
CCOC(=O)C1=C(C)CS[C@@H]2[C@H](NC(=O)CCc3ccc(OC)cc3)C(=O)N12 [12i],bactericidal activity against nonreplicating wild-type M. tuberculosis (Figure S2),[1],bactericidal
CCCOC(=O)N[C@@H]1C(=O)N2C(C(=O)OCCC)=C(C)CS[C@H]12 [compound 2],d6: % remaining in PBS,[2],stable
same,d6: % remaining NR medium + 0.5 mM NaNO2,[2],stable
same,d6: % remaining NR medium,[2],stable
same,activity against replicating M. tuberculosis on addition of clavulanate,[3]; addition of clavulanate,did not lead to activity
same,R-MIC90 3 days OD580 = 0.01,[3],55.44 µg/mL
same,NR-MIC90 3 days OD580 = 0.01,"[4]; nonreplicating, OD580 = 0.01",3.11 µg/mL
same,NR-MIC90 3 days OD580 = 0.1,[4]; nonreplicating,2.61 µg/mL
same,NR-MIC90 6 days OD580 = 0.1,[4]; [11],0.52 µg/mL
